Results reported in patent publication US8455440B2, “Combination anticoagulant therapy with a compound that acts as a factor Xa inhibitor” (Millennium Pharmaceuticals, Inc., priority 2007, dated 2013).

How the values were obtained:
[1] = Plasma concentrations of Compound A in telemeterized dogs; assay type: in vivo; details: combination with verapamil
Excerpt: It is further contemplated that in patients being treated for atrial fibrillation, blood pressure lowering drugs such as beta blockers or calcium channel blockers and Compound A may be used concomitantly. Drugs like verapamil are known inhibitors of p-glycoprotein function. […] See Example 10.
The study was designed to evaluate the in vivo effect of Compound A upon co-administration with a selective L type calcium channel blocker, verapamil. Three beagle dogs were implanted with Data Science Telemetry transmitters (DSI model # TL11M2-D70-PCT) to measure conscious (un-anaesthetized) and unrestrained systolic and diastolic blood pressure following oral dosing with Compound A, verapamil or a combination of the two. The study design was a three way crossover with one week between doses to ensure complete elimination of residual agents from the dogs' circulatory system. Data was analyzed for a twelve hour period, starting with one hour pre-oral dosing of Compound A and ending with eleven hours post-dosing. Data acquisition and analysis was performed using LDS Life Science Suite Ponemah P3 plus V 4.20 software with results reported as 10 minute averages for each animal.

human whole blood = experiment: Real time perfusion chamber: whole blood perfused over collagen and tissue factor coated surface; assay type: cell-based; details: shear rate 300 s^−1, five donors
Experimental: After the perfusion, the thrombotic activity was quantified by measurement of labeled fibrin produced as a result of fibrinogen cleavage during the activation of platelets and the blood coagulation system. For this series of experiments in five healthy human volunteers, blood was obtained by venipuncture and treated with 2.4 μM eptifibatide. The dose of eptifibatide corresponds to the plasma concentration attained by therapeutic concentrations of the GPIIb/IIIa inhibitor.

p-glycoprotein = p-glycoprotein (Homo sapiens, UniProt P08183); experiment: In vitro evaluations of p-glycoprotein substrate; assay type: in vitro ADME
Sequence of p-glycoprotein (P08183 whole entry): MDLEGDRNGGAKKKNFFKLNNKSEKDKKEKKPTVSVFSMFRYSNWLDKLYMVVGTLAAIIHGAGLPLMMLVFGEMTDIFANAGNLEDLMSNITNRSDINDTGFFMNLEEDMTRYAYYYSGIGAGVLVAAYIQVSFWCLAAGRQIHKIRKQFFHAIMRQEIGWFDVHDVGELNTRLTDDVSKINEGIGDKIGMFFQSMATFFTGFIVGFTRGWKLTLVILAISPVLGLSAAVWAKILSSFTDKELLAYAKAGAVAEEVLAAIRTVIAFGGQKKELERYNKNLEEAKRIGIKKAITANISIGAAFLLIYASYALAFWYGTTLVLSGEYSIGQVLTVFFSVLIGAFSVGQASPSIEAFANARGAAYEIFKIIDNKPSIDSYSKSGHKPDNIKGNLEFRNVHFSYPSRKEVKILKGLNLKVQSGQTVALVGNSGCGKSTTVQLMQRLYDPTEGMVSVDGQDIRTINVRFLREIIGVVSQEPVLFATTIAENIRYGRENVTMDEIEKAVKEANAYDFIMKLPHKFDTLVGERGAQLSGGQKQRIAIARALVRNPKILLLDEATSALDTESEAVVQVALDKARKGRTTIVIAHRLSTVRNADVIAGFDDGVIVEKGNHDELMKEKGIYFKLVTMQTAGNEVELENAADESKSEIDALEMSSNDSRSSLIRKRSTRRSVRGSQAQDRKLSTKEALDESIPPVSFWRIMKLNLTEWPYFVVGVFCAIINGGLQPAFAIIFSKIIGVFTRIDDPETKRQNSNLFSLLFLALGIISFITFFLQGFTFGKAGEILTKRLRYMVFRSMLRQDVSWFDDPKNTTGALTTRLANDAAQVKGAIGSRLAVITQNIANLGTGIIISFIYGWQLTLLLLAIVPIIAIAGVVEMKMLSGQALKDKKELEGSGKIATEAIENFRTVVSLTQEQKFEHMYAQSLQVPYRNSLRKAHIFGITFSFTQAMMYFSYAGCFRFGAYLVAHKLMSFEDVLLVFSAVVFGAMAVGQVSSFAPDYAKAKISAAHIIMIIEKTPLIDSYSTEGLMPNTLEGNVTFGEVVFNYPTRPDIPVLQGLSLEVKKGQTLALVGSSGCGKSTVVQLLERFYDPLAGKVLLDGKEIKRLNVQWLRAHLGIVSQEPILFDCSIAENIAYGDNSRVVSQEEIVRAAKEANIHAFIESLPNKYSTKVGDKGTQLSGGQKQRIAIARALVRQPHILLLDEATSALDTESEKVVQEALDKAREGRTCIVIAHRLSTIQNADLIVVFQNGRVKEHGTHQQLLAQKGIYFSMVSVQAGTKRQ

Interleukin 6 = experiment: Ex vivo cytokine release in human whole blood: interleukin 6; assay type: cell-based; details: for fold change of Interleukin 6 release: combination with Aspirin (0 nM = 1)
Experimental: An ex vivo assay system of human cytokine release was used to test whether inhibition of factor Xa should augment the effect of reduction of inflammation elicited by standard anti-inflammatory drugs, such as aspirin.
Following addition of Compound A (50 to 500 nM) to the blood samples, control and treated samples were activated by addition of collagen (Chronolog, 4 μg/mL) and gently rotated at 37° C. for 45 min. At the end of the activation period, blood samples were centrifuged at 13,000 rpm (15,000 g) for 5 min in an Eppendorf 5415G centrifuge. Plasma was removed, treated with protease inhibitor cocktail (Roche) and stored frozen at −80° C. Cytokines released from the blood cells were quantitated in a Multiplexed Biomarker Immunoassay for Luminex Instrumentation (Millipore USA). […] For example, in the plasma samples from six donors, the mean amount of interleukin 4 was 28.4 pg/mL in the untreated control and 26.8 to 29.4 pg/mL in the Compound A treated samples. […] Thus in this ex vivo system Compound A was capable of providing additional beneficial effect over a widely used anti-inflammatory agent.

## COc1ccc(NC(=O)c2ccc(C(=N)N(C)C)cc2)c(C(=O)Nc2ccc(Cl)cn2)c1 [Compound A, [2-({4-[(dimethylamino)iminomethyl]phenyl}carbonylamino)-5-methoxyphenyl]-N-(5-chloro(2-pyridyl))carboxamide]
[1]
  plasma concentrations of Compound A, dual treatment versus single treatment: about two times higher
Human whole blood; 10 nM Compound A + 2.4 μM eptifibatide
  Mean Fluorescence: 107.7
Human whole blood; 25 nM Compound A + 2.4 μM eptifibatide
  Mean Fluorescence: 85.0
Human whole blood; 50 nM Compound A + 2.4 μM eptifibatide
  Mean Fluorescence: 64.5
Human whole blood; 75 nM Compound A + 2.4 μM eptifibatide
  Mean Fluorescence: 34.7
Human whole blood; 100 nM Compound A + 2.4 μM eptifibatide
  Mean Fluorescence: 33.0
p-glycoprotein
  p-glycoprotein substrate: substrate of p-glycoprotein
Interleukin 6; 50 nM Compound A
  fold change of Interleukin 6 release: 1.01
Interleukin 6; 200 nM Compound A
  fold change of Interleukin 6 release: 0.96
Interleukin 6; 500 nM Compound A
  fold change of Interleukin 6 release: 0.87
Interleukin 6; Compound A added to blood samples from donors under aspirin therapy
  reduction in the levels of released interleukin 6: 25%
Interleukin 6; addition of Compound A to whole blood of aspirin treated donors prior to collagen activation
  further reduction of interleukin 6: 16%
